Test results taken from publication PMC5986797, “Laminin heparin-binding peptides bind to several growth factors and enhance diabetic wound healing” (Nature Communications, 2018).

Tests used:
[1] = tested on: recombinant human laminin isoforms (–111, –211, –332, –411, –421, –511, and –521); assay: ELISA: binding of full-length laminin isoforms to absorbed GFs and CXCL chemokines; settings: 50 nM GF coated, 10 nM laminin, n = 4; for binding to all tested laminin isoforms (ELISA, A450 nm): signals greater than 0.1 indicate binding; for binding to the other laminin isoforms (ELISA, A450 nm): isoforms other than laminin-332
Protocol: Ninety-six-well ELISA plates (med-binding, Greiner Bio-One) were coated with 50 nM GFs in 100 µL/well of phosphate-buffered saline (PBS) at 37 °C for more than 2 h. After blocking with 2% BSA solution containing PBS and 0.05% Tween 20 (PBS-T), 10 nM recombinant human laminin isoforms (–111, –211, –332, –411, –421, –511, and –521) (>95% purity tested by SDS-PAGE, BioLamina) in 100 µL/well PBS were added. Bound laminin was detected with 100 µL/well rabbit anti-human LAMC1 polyclonal antibody (Assay Biotech, Catalog No. C13072, 1:1000 dilution in PBS) or rabbit anti-human LAMA3 polyclonal antibody (Assay Biotech, Catalog No. C13066, 1:1000 dilution in PBS). After incubation with biotinylated anti-rabbit antibody for 60 min at room temperature (RT), HRP-conjugated streptavidin (Jackson ImmunoResearch) was added. After 60 min of incubation at RT, 50 μL of TMB substrate (Sigma-Aldrich) was added. The reactions were stopped by adding 25 μL of 2 N H2SO4. Subsequently, the absorbance at 450 nm was measured with a reference of 570 nm.

[2] = ELISA: biotinylated heparin binding to laminin peptides; parameters: key to Interaction with Heparin: ++ indicates high affinities; + indicates medium/low affinities; settings: for binding to heparin (ELISA): 10 µg/mL laminin peptide coated (legend; method 1 μg/mL), 10 µg/mL biotinylated heparin, vs BSA-coated wells, n = 4; for Interaction with Heparin: summary table
Protocol: (§1) ELISA tests were performed as described above. In brief, […] recombinant protein, laminin alpha 4 LG domain recombinant protein (R&D Systems), laminin alpha 5 LG domain recombinant protein (LD BioPharma), or laminin peptide (sequences are described in Supplementary Table 1, chemically synthesized by Genscript) in PBS for 2 h at 37 °C. A concentration of 1 μg/mL of BSA served as non-binding protein control. After blocking with 2% BSA PBS-0.05% Tween 20 (PBS-T) solution, 1 μg/mL of the recombinant human proteins (VEGF-A121, VEGF-A165, PlGF-1, PlGF-2, PDGF-BB, or FGF-2) or 10 μg/mL of biotinylated heparin (Sigma-Aldrich) were added. Bound GF was detected with biotinylated antibodies for human VEGF-A, PlGF, PDGF-BB (R&D Systems, Catalog No. DY220, 1:180 dilution), or FGF-2 (R&D Systems). The antibodies were detected by streptavidin-HRP (R&D Systems).

[3] = tested on: VEGF-A165; assay: ELISA: VEGF-A165 binding to laminin LG domain / laminin peptide; parameters: species or system human; settings: 10 µg/mL laminin peptide coated (legend; method 1 μg/mL); 1 μg/mL GF; vs BSA-coated wells; n = 4
Protocol: as §1

[4] = tested on: GF; assay: ELISA: GF binding to laminin peptides, stated for the tested GFs together; parameters: species or system human; key: ++ indicates high affinities; + indicates medium/low affinities; settings: summary table
Protocol: (§2) ELISA tests were performed as described above. In brief, ELISA plates were coated with 1 μg/mL of laminin alpha 3 LG domain recombinant protein, laminin alpha 4 LG domain recombinant protein (R&D Systems), laminin alpha 5 LG domain recombinant protein (LD BioPharma), or laminin peptide (sequences are described in Supplementary Table 1, chemically synthesized by Genscript) in PBS for 2 h at 37 °C. A concentration of 1 μg/mL of BSA served as non-binding protein control. After blocking with 2% BSA PBS-0.05% Tween 20 (PBS-T) solution, 1 μg/mL of the recombinant human proteins (VEGF-A121, VEGF-A165, PlGF-1, PlGF-2, PDGF-BB, or FGF-2) or 10 μg/mL of biotinylated heparin (Sigma-Aldrich) were added. Bound GF was detected with biotinylated antibodies for human VEGF-A, PlGF, PDGF-BB (R&D Systems, Catalog No. DY220, 1:180 dilution), or FGF-2 (R&D Systems). The antibodies were detected by streptavidin-HRP (R&D Systems).

[5] = tested on: recombinant human syndecan-1, syndecan-2, syndecan-3, and syndecan-4; assay: ELISA: syndecan binding to laminin peptides; parameters: key to Interaction with Syndecan: ++ indicates high affinities; + indicates medium/low affinities; settings: for binding to syndecans 1–4 (ELISA): 10 µg/mL laminin peptide coated (legend; method 1 μg/mL), 1 μg/mL histidine-tagged syndecan, vs BSA-coated wells, n = 8; for Interaction with Syndecan: summary table
Protocol: ELISA tests were performed as described above. […] A concentration of 1 μg/mL of BSA served as non-binding protein control. After blocking with 2% BSA PBS-T solution, 1 μg/mL of the recombinant human syndecan-1, syndecan-2, syndecan-3, and syndecan-4 (all syndecan proteins are histidine-tagged; SinoBiological) were added. Bound GF was detected with anti-histidine tag antibody (BioLegend, Catalog No. 562504, 1:1000 dilution).

[6] = tested on: human lung fibroblasts; assay: Cell adhesion assay, fibroblasts; assay type: cell-based; parameters: key to Cell adhesion Fibroblast: ++ indicates high affinities; + indicates medium/low affinities; settings: for Cell adhesion Fibroblast: summary table; for fibroblast attachment on peptide-coated surfaces: without EDTA, 1 μg/mL peptide coated, 3000 cells/well, 30 min, 37 °C, FGM-2, 1% FBS, CyQUANT, vs BSA, n = 10
Protocol: (§3) A total of 96-well plates (non-tissue culture treated, Greiner Bio-One) were pre-coated with 1 μg/mL with laminin HBD peptides in PBS for 2 h at 37 °C, followed by blocking with 2% BSA PBS for 1 h at RT. Cell adhesion assays were performed using human lung fibroblasts (Lonza) in FGM-2 medium (Lonza) or human umbilical vein endothelial cells (HUVEC; Lonza) in EGM-2 medium (Lonza) supplemented with 1% fetal bovine serum (FBS) and 100 µg/mL VEGF-A165, with or without 5 mM EDTA (Sigma-Aldrich). Cells were plated at 3000 cells/well on laminin peptide pre-coated plates and incubated for 30 min at 37 °C, 5% CO2. Then, the medium was removed, and wells were quickly washed three times with PBS. Cell numbers were quantified using a CyQUANT assay, according to the manufacturer’s instructions (Invitrogen). All cell lines were checked for mycoplasma contamination and used in passages from 5 to 8.

[7] = tested on: FGF-2; assay: ELISA: FGF-2 binding to laminin LG domain / laminin peptide; parameters: species or system human; settings: 10 µg/mL laminin peptide coated (legend; method 1 μg/mL); 1 μg/mL GF; vs BSA-coated wells; n = 4
Protocol: as §2

[8] = tested on: human umbilical vein endothelial cells (HUVEC); assay: Cell adhesion assay, HUVEC; assay type: cell-based; parameters: key to Cell adhesion HUVEC: ++ indicates high affinities; + indicates medium/low affinities; settings: for Cell adhesion HUVEC: summary table; for HUVEC attachment on peptide-coated surfaces: without EDTA, 1 μg/mL peptide coated, 3000 cells/well, 30 min, 37 °C, 100 ng/mL VEGF-A165, 1% FBS, CyQUANT, n = 10
Protocol: as §3, with “Cell adhesion assays were performed using human lung fibroblasts (Lonza) in FGM-2 medium (Lonza) or human umbilical vein endothelial cells (HUVEC; Lonza) in EGM-2 medium (Lonza) supplemented with 1% fetal bovine serum (FBS) and 100 µg/mL VEGF-A165, with or without 5 mM EDTA (Sigma-Aldrich).” left out

[9] = tested on: PDGF-BB; assay: ELISA: PDGF-BB binding to laminin LG domain / laminin peptide; parameters: species or system human; settings: 10 µg/mL laminin peptide coated (legend; method 1 μg/mL); 1 μg/mL GF; vs BSA-coated wells; n = 4
Protocol: as §2

[10] = tested on: PlGF-2; assay: ELISA: PlGF-2 binding to laminin LG domain / laminin peptide; parameters: species or system human; settings: 10 µg/mL laminin peptide coated (legend; method 1 μg/mL); 1 μg/mL GF; vs BSA-coated wells; n = 4
Protocol: as §2

Substance: BMP-4: bone morphogenetic protein, PeproTech
- binding to all tested laminin isoforms (ELISA, A450 nm) [1]: not

Substance: CXCL-11: CXCL chemokine, PeproTech
- binding to the other laminin isoforms (ELISA, A450 nm) [1]: not to the other isoforms
- binding to laminin-332 (ELISA, A450 nm) [1]: bound weakly

Substance: CXCL-12α: CXCL chemokine, PeproTech
- binding to the other laminin isoforms (ELISA, A450 nm) [1]: not to the other isoforms
- binding to laminin-332 (ELISA, A450 nm) [1]: bound weakly

Substance: CXCL-12γ: C–X–C motif ligand (CXCL)-12γ, R&D systems
- binding to all tested laminin isoforms (ELISA, A450 nm) [1]: bound

Substance: FGF-1: fibroblast growth factor, PeproTech
- binding to all tested laminin isoforms (ELISA, A450 nm) [1]: did not

Substance: FGF-2: fibroblast growth factor, PeproTech
- binding to all tested laminin isoforms (ELISA, A450 nm) [1]: bound

Substance: FGF-18: fibroblast growth factor, PeproTech
- binding to all tested laminin isoforms (ELISA, A450 nm) [1]: bound

Substance: HB-EGF: heparin-binding epidermal growth factor, PeproTech
- binding to all tested laminin isoforms (ELISA, A450 nm) [1]: weakly bound

Substance: IGF-1: insulin-like growth factor, PeproTech
- binding to all tested laminin isoforms (ELISA, A450 nm) [1]: Neither IGF-1 nor IGF-2 displayed significant binding

Substance: IGF-2: insulin-like growth factor, PeproTech
- binding to all tested laminin isoforms (ELISA, A450 nm) [1]: Neither IGF-1 nor IGF-2 displayed significant binding

Substance: KNSFMALYLSKGR [LAMA3_3031–3043, chemically synthesized human laminin LAMA3 LG4 peptide, 13 aa]
- binding to heparin (ELISA) [2]: do not show heparin binding
- binding to VEGF-A165 (ELISA), peptides [3]: bound
- Interaction with GF [4]: +
- binding to syndecans 1–4 (ELISA) [5]: weak binding
- Interaction with Syndecan [5]: +
- Cell adhesion Fibroblast [6]: +
- fibroblast attachment on peptide-coated surfaces [6]: enhancement of fibroblast attachment

Substance: NT-3: neurotrophin, PeproTech
- binding to all tested laminin isoforms (ELISA, A450 nm) [1]: strong binding

Substance: PDGF-AA: platelet-derived growth factor, PeproTech
- binding to all tested laminin isoforms (ELISA, A450 nm) [1]: bound

Substance: PDGF-BB: platelet-derived growth factor, PeproTech
- binding to all tested laminin isoforms (ELISA, A450 nm) [1]: bound

Substance: PPFLMLLKGSTRFNKTKTFR [LAMA3_2932–2951, chemically synthesized human laminin LAMA3 LG3–LG4 linker peptide, 20 aa]
- binding to heparin (ELISA) [2]: bound to heparin
- Interaction with Heparin [2]: ++
- binding to VEGF-A165 (ELISA), peptides [3]: preferentially bound
- binding to FGF-2 (ELISA), peptides [7]: preferentially bound
- Interaction with GF [4]: +
- binding to syndecans 1–4 (ELISA) [5]: weak binding
- Interaction with Syndecan [5]: +
- Cell adhesion Fibroblast [6]: +
- fibroblast attachment on peptide-coated surfaces [6]: enhancement of fibroblast attachment
- Cell adhesion HUVEC [8]: +
- HUVEC attachment on peptide-coated surfaces [8]: promoted HUVEC attachment

Substance: TLFLAHGRLVYMFNVGHKKLKIR [LAMA4_1521–1543, chemically synthesized human laminin LAMA4 LG4 peptide, 23 aa]
- binding to heparin (ELISA) [2]: bound to heparin
- Interaction with Heparin [2]: ++
- binding to PDGF-BB (ELISA), peptides [9]: not statistically significant
- Interaction with GF [4]: +
- binding to syndecans 1–4 (ELISA) [5]: significant binding
- Interaction with Syndecan [5]: ++
- Cell adhesion Fibroblast [6]: +
- fibroblast attachment on peptide-coated surfaces [6]: enhancement of fibroblast attachment
- Cell adhesion HUVEC [8]: +
- HUVEC attachment on peptide-coated surfaces [8]: promoted HUVEC attachment

Substance: TPGLGPRGLQATARKASRRSRQPARHPACML [LAMA5_3300–3330, chemically synthesized human laminin LAMA5 linker peptide, 31 aa]
- binding to heparin (ELISA) [2]: bound to heparin
- Interaction with Heparin [2]: ++
- binding to VEGF-A165 (ELISA), peptides [3]: preferentially bound
- binding to PlGF-2 (ELISA), peptides [10]: preferentially bound
- Interaction with GF [4]: +
- binding to syndecans 1–4 (ELISA) [5]: significant binding
- Interaction with Syndecan [5]: ++

Substance: βNGF: β-nerve growth factor, PeproTech
- binding to all tested laminin isoforms (ELISA, A450 nm) [1]: bound only weakly
